Our source for the cytotoxicity values is ChEMBL document CHEMBL3507680, “University of Dundee, Gates Library screen for HepG2 cell viability”.

This data set in a line: Human HepG2 cell viability assay in 384 well format. The format is toxicity, cell-based. Details: dose 125 nL, time 70.5 hour; concentration not given beside the values. Particulars: HepG2 cells, read-out: Inhibition.
Regarding `CC(C)CN1CCC(NC(=O)NCCC(=O)NCc2ccccc2)CC1`, the cytotoxicity at 70.5 h is -2.46%.
As for `Cc1noc(C)c1CS(=O)(=O)CC(=O)NCCc1ccccc1`, the figure is 15.9%.
Turning to `COCCCC(=O)Nc1[nH]nc(-c2ccncc2)c1C`, the cytotoxicity at 70.5 h was -3.19%.
Under `CC(C)(CNC(=O)C1CCCN(C(N)=O)C1)c1cccc(Cl)c1` (stereo not drawn) stands 9.61%; under `NC(=O)Nc1cccc(CNC(=O)CCCOCc2ccccc2)c1`, 2.63%; under `CCc1[nH]ncc1C(=O)N1CCN(c2nccc(OC)n2)CC1`, -3.61%.
As for `Cc1nc2n(n1)CC(NCc1ccccc1OCC(=O)N(C)C)CC2` (stereo not drawn), the figure is -3.73%; as for `Cn1nc2c(cc1=O)CN(CCCOc1ccc(C#N)cc1)CC2`, -5.17%; as for `CC(C)N1CCC(NC(=O)NCc2cccnc2)C1` (stereo not drawn), -1.38%.
Regarding `Cc1ccccc1C(=O)NCCC(=O)NS(=O)(=O)c1cccnc1`, the cytotoxicity at 70.5 h was 19.3%.
With `O=C(CCNC(=O)NC1CCN(C2CC2)CC1)NCc1ccccc1`, the cytotoxicity at 70.5 h is -3.29%.
As for `OCCN(Cc1cccnc1)c1ccc(Cl)cn1`, the figure is -2.8%.
As for `CCc1nc2n(n1)CC(NCc1ccccc1OCC(=O)NC)CC2` (stereo not drawn), the figure is -2.9%.
Under `COC(=O)c1oc(CNC(C)(C)c2ccc3c(c2)OCCO3)cc1C` stands 20.9%; under `CC(C)c1cc(C(=O)N2CCN(Cc3ccc(C#N)cc3)CC2)n[nH]1`, -4.18%.
As to `COc1ccnc(N2CCN(C(=O)c3csc(C)n3)CC2)n1`, the cytotoxicity at 70.5 h is -4.93%.
Regarding `COc1ccnc(N2CCN(C(=O)c3csnn3)CC2)n1`, the cytotoxicity at 70.5 h was -3.32%.
Under `Cc1cc2n(n1)CC(CNC1CCN(CCc3ccccc3)CC1)CN2` (stereo not drawn) stands 0.368%.
As for `CCOc1cc(C)ccc1NS(=O)(=O)c1cc(C)c(C(=O)O)s1`, the figure is -1.53%.
Under `Cc1nc(CN2CCC(CNC(=O)C3(C)CCCC3)CC2)oc1C` stands -4.66%; under `CC(NC(=O)Nc1ccccc1CN1CCOCC1)c1nccs1` (stereo not drawn), -2.17%.
Regarding `Cc1ccsc1C(=O)NC1CCN(c2cnn(C)c2)C1=O` (stereo not drawn), the cytotoxicity at 70.5 h was determined as 17.9%.
On to `Cn1cc(N2CCC(NC(=O)c3ccccc3Cl)C2=O)cn1` (stereo not drawn), for which the cytotoxicity at 70.5 h came to 1.26%.
Under `Cn1cc(N2CCC(NC(=O)c3c(F)cccc3Cl)C2=O)cn1` (stereo not drawn) stands -3.25%.
As for `CSC(C)(C)CNC(=O)NCc1cccc(-n2cncn2)c1`, the figure is -0.656%; as for `Cc1nc(CN2CCC(CNC(=O)C3CCOC3)CC2)oc1C` (stereo not drawn), 16.3%.
Consider `CCC(CC)c1cc(CNC(=O)N2CCCN(C(C)=O)CC2)on1`, for which the cytotoxicity at 70.5 h is -3.25%.
As for `Cc1noc(CCCC(=O)NC(C)c2nnc3n2CCC3)n1` (stereo not drawn), the figure is -4.98%.
As for `CCN1CCN(c2ccc(F)cc2C(C)NCc2cscn2)CC1` (stereo not drawn), the figure is -3.66%; as for `COCc1nc(C(=O)N2CCN(c3nccc(OC)n3)CC2)cs1`, 14.1%.
For `O=C(CCNC(=O)c1sccc1-c1ccccc1)NC1CCS(=O)(=O)C1` (stereo not drawn), the cytotoxicity at 70.5 h was -9.28%.
On to `O=C(CNc1cc2c(cc1Cl)OCCO2)NCC(F)(F)F`, for which the cytotoxicity at 70.5 h is -3.78%.
Under `O=C1CC2(CCCCC2)C(=O)N1CC(O)COCc1ccccc1F` (stereo not drawn) stands -4.1%; under `CCN(CC(=O)NC)S(=O)(=O)N1CCCCC1`, -7.25%; under `CCN1CCC(NC(=O)Cn2cc(C)c3ccccc32)CC1`, 8.33%.
Take `Cc1cn(CC(=O)NC2CCC3(CC2)OCCO3)c2ccccc12`: the cytotoxicity at 70.5 h was -6.58%.
As for `O=C(Nc1cccc(N2CCN(CC3CC3)CC2)c1)N1CCCC1`, the figure is 0.629%; as for `CC(=O)NCCC(=O)Nc1cccc(N2CCN(CC3CC3)CC2)c1`, -0.54%; as for `CSCC(C)(O)CNC(=O)c1ccc(F)cc1Cl` (stereo not drawn), 0.551%.
Turning to `Cc1cnc(NC(=O)N2CCC(N3CCCCC3=O)CC2)s1`, the cytotoxicity at 70.5 h was -1.3%.
Under `OC(CN(Cc1ccccc1)Cc1ccccn1)c1cccs1` (stereo not drawn) stands -11%.
As for `OC(CN(Cc1ccccc1)Cc1cscn1)c1cccs1` (stereo not drawn), the figure is -2.62%; as for `Cc1nc(C)c(C(=O)NCC(c2ccccc2Cl)N2CCOCC2)s1` (stereo not drawn), 19.6%; as for `Cc1cc(C(=O)NCC(c2ccccc2Cl)N2CCOCC2)on1` (stereo not drawn), -1.66%.
As for `Cc1[nH]ncc1CCCNC(=O)Nc1ccc(S(C)(=O)=O)nc1`, the figure is 10.3%.
Regarding `O=C(c1cccnc1-n1cncn1)N1CCN(CC(F)(F)F)CC1`, the cytotoxicity at 70.5 h is -0.957%.
Under `Cc1nnc(NCC2(c3ccccc3)CCOCC2)c(C#N)c1C` stands 16.6%.
As to `CNC(=O)COc1nc(C(C)(C)C)no1`, the cytotoxicity at 70.5 h was 3.09%.
Under `CN(Cc1noc(C(C)(C)C)n1)CC1CCN(CCO)CC1` stands -3.04%; under `CCOCC(O)CN1CCN(C(=O)c2ccncc2)CC1` (stereo not drawn), -3.55%.
`Cc1ccc(C(=O)NCC2(O)CCOCC2)cc1F`: the cytotoxicity at 70.5 h was -1.08%.
On to `COc1ccccc1C1(CNc2nnc(C)c(C)c2C#N)CCCC1`, for which the cytotoxicity at 70.5 h was found to be 2.69%.
As to `CCN(CC(C)C#N)C(=O)CSc1ccc(C(F)(F)F)cn1` (stereo not drawn), the cytotoxicity at 70.5 h was -3.1%.
As for `CC(C)CC(=O)NCc1cccc(OCCN(C)C2CCOCC2)c1`, the cytotoxicity at 70.5 h is -4.5%.
As for `CN1CCCN(C(=O)NCCNc2ncccc2C#N)CC1`, the figure is -2.49%; as for `CC(C)COC(=O)N1CCCN(Cc2nnc(C(C)(C)C)o2)CC1`, -4.02%; as for `CN(Cc1ccc(C#N)cc1)C(=O)c1ccnc(OC2CCC2)c1`, 16.3%.
Under `Cc1ccc(CN(C)C(=O)CN2CCCCC2Cn2cncn2)o1` (stereo not drawn) stands 17.9%; under `CCOCC(O)CN1CCN(C(=O)c2ccsc2)CC1` (stereo not drawn), 17.1%.
As for `Cc1cc2n(n1)CC(CNCCNC(=O)c1ccc(F)cc1)CN2` (stereo not drawn), the figure is -4.35%; as for `CC(C)c1noc(CNC2CCCN(Cc3noc(C4CC4)n3)C2)n1` (stereo not drawn), -11.4%; as for `Cc1csc(CN(C)C(=O)Nc2cnn(CC3CCCO3)c2)n1` (stereo not drawn), -12.7%.
With `CN1CCC(CN(C)S(=O)(=O)CC2CCCCC2)CC1`, the cytotoxicity at 70.5 h stood at 11.1%.
As for `O=C(CC1=CCCCC1)Nc1ccc(CN2C(=O)CCC2=O)cc1`, the cytotoxicity at 70.5 h is -3.73%.
Under `CC(C)N1CCC(Nc2ccn(C)n2)C1=O` (stereo not drawn) stands -3.38%.
Regarding `CCC1c2ccccc2CCN1C(=O)c1ccc(OC)nn1` (stereo not drawn), the cytotoxicity at 70.5 h was -0.324%.
Under `Cn1ccc(C(=O)N(CC(F)F)c2cccc(Cl)c2)cc1=O` stands -2.11%; under `CN1CCCC(N2CCN(c3nc4ccccn4c3C#N)CC2)C1` (stereo not drawn), 11.1%.
In the case of `CS(=O)(=O)CCN(Cc1cccc(O)c1)C1CCC(O)CC1` (stereo not drawn), the cytotoxicity at 70.5 h is -4.64%.
As for `CCC1c2ccccc2CCN1C(=O)c1ccnc(C(=O)OC)c1` (stereo not drawn), the figure is -1.37%.
Under `CN(Cc1cnn(C)c1)S(=O)(=O)N1CCCC1c1ccco1` (stereo not drawn) stands -0.954%; under `Cc1cnn(CC2CCCCN2C(=O)c2ccc(C#N)c(C)n2)c1` (stereo not drawn), -0.947%.
In the case of `COc1ccnc(N(C)Cc2ccccc2OC(F)(F)F)n1`, the cytotoxicity at 70.5 h was -1.49%.
For the compound `Cc1cc(C(=O)N2CCCC(N3CCCCCC3)C2)nn1C(C)(C)C` (stereo not drawn), the cytotoxicity at 70.5 h was 16.8%.
`COc1cc(C(=O)N(C)C)ccc1NC(=O)c1ccsc1`: the cytotoxicity at 70.5 h was 1.32%.
As for `CN(CC1CC1)C(=O)CN1CCCC1c1cnn(C)c1` (stereo not drawn), the figure is 1.65%; as for `CC(=O)Nc1nc(C(=O)NCCOc2cccc(C)c2)cs1`, -8.98%; as for `CC(=O)Nc1nc(C(=O)NCCOc2cccc(F)c2)cs1`, -17.7%.
Take `CC(C)N(C)Cc1ccccc1CNc1ccc2nncn2n1`: the cytotoxicity at 70.5 h is -12%.
Consider `COc1ccccc1C(=O)Nc1c(C)cnn1CC1CC1`, for which the cytotoxicity at 70.5 h is -21.8%.
Under `CCOc1ncccc1C(=O)Nc1c(C)cnn1CC1CC1` stands -9.45%; under `CN(C(=O)CN1CCCC1c1cnn(C)c1)C1(C#N)CCCCC1` (stereo not drawn), -4.65%; under `NC(=O)CCn1ccc(NC(=O)C2(c3ccc(F)cc3)CCC2)n1`, 1.99%.
As to `Cc1cnn(CCC(=O)Nc2ccc(F)cc2OCC2CC2)c1`, the cytotoxicity at 70.5 h was -12.1%.
In the case of `O=C(CCn1cncn1)Nc1ccc(F)cc1OCC1CC1`, the cytotoxicity at 70.5 h is -9.3%.
For `O=C(Cn1cnnn1)Nc1ccc(F)cc1OCC1CC1`, the cytotoxicity at 70.5 h is -13.9%.
As for `CNC(=O)c1ccc(OC)c(NCc2noc(-c3cccs3)n2)c1`, the cytotoxicity at 70.5 h is -16.8%.
Regarding `O=C(c1cccnc1)N1CCN(c2ccnc3ccsc23)CC1`, the cytotoxicity at 70.5 h was -10.7%.
Under `Cc1cc(CNC(=O)NCc2cccs2)ccc1S(C)(=O)=O` stands -8.79%; under `CC(CNC(=O)c1c[nH]nn1)Oc1ccccc1Br` (stereo not drawn), -10.7%; under `CC(C)S(=O)(=O)N(C)C(=O)CCc1ccsc1`, -12%.
In the case of `Cc1ccc(C(=O)N2CCN(c3ccnc4ccsc34)CC2)o1`, the cytotoxicity at 70.5 h was -12%.
As for `CCCS(=O)(=O)N(C)C(=O)CCc1ccsc1`, the figure is 0.207%.
As to `COCCOc1ccc(NCc2cccc3cn[nH]c23)cn1`, the cytotoxicity at 70.5 h is -7.69%.
Turning to `COCCOc1ncccc1C(=O)Nc1c(C)cnn1CC1CC1`, the cytotoxicity at 70.5 h amounted to 8.78%.
As for `COCCOc1ccccc1C(=O)Nc1c(C)cnn1CC1CC1`, the figure is -6.01%.
Consider `Cc1cccc(OC2CCN(c3ncc(C#N)cc3Cl)CC2)n1`, for which the cytotoxicity at 70.5 h was -6.22%.
Consider `CN(Cc1ccccc1)C(=O)CN1CCCC1c1cnn(C)c1` (stereo not drawn), for which the cytotoxicity at 70.5 h was -10.2%.
On to `Cc1ccc(-c2nnc(C(C)NCCn3cc(C)cn3)o2)cc1` (stereo not drawn), for which the cytotoxicity at 70.5 h is -14.8%.
Under `CCn1c(C)cc(C(=O)NCc2cccc(S(=O)(=O)NC)c2)c1C` stands -4.15%; under `Cc1cc(SC(C)(C)C)ccc1NC(C)C(=O)NC(N)=O` (stereo not drawn), 9.69%.
As for `c1cc(CNCc2ccnc(N3CCCC3)c2)c2c(c1)OCCO2`, the figure is 5.3%.
As for `CC(C)c1nc(C2CCCNC2)no1` (stereo not drawn), the figure is 14.1%.
